From ChEMBL document CHEMBL3727342, “Compounds and methods for kinase modulation, and indications therefor” (2012)

Experiments:
[1] = molecular target: Mast/stem cell growth factor receptor Kit (Homo sapiens, UniProt P10721); assay: Inhibition of Kit (unknown origin) expressed in Escherichia coli
[2] = molecular target: Vascular endothelial growth factor receptor 2 (Homo sapiens, UniProt P35968); assay: Inhibition of KDR (unknown origin) by FRET assay
[3] = molecular target: Serine/threonine-protein kinase B-raf (Homo sapiens, UniProt P15056, V600E); assay: Inhibition of B-raf V600E mutant (unknown origin) expressed in Sf9 cells using biotin-MEK1substrate incubated for 1 hr
[4] = molecular target: RAF proto-oncogene serine/threonine-protein kinase (Homo sapiens, UniProt P04049); assay: Inhibition of human C-raf using biotin-MEK1 substrate incubated for 1 hr
Sequence of RAF proto-oncogene serine/threonine-protein kinase (P04049 whole entry): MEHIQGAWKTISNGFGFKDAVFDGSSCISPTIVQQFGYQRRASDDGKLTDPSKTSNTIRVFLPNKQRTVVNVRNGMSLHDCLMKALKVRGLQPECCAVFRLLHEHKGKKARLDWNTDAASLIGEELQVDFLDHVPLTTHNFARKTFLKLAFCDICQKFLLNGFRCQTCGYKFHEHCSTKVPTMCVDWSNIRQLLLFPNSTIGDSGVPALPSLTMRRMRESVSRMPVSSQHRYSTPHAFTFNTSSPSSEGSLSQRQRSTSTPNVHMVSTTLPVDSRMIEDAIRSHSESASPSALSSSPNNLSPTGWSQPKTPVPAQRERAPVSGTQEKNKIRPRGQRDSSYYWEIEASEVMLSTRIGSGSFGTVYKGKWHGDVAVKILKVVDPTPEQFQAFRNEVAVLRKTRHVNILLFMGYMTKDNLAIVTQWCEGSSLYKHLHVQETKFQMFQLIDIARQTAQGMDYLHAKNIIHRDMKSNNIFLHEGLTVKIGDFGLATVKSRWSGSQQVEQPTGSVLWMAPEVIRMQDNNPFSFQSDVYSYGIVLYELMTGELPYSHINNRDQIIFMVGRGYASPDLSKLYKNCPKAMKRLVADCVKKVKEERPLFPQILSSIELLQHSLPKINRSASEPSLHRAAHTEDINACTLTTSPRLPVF

[5] = molecular target: Proto-oncogene tyrosine-protein kinase Src (Homo sapiens, UniProt P12931); assay: Inhibition of Src (unknown origin) expressed in Escherichia coli using biotin-(E4Y)3 substrate
[6] = molecular target: Serine/threonine-protein kinase B-raf (Homo sapiens, UniProt P15056); assay: Inhibition of N-terminal GST-tagged human recombinant B-Raf (416 to end residues) using biotin-MEK1 substrate incubated for 1 hr
Sequence of Serine/threonine-protein kinase B-raf (Homo sapiens, UniProt P15056) (P15056 whole entry): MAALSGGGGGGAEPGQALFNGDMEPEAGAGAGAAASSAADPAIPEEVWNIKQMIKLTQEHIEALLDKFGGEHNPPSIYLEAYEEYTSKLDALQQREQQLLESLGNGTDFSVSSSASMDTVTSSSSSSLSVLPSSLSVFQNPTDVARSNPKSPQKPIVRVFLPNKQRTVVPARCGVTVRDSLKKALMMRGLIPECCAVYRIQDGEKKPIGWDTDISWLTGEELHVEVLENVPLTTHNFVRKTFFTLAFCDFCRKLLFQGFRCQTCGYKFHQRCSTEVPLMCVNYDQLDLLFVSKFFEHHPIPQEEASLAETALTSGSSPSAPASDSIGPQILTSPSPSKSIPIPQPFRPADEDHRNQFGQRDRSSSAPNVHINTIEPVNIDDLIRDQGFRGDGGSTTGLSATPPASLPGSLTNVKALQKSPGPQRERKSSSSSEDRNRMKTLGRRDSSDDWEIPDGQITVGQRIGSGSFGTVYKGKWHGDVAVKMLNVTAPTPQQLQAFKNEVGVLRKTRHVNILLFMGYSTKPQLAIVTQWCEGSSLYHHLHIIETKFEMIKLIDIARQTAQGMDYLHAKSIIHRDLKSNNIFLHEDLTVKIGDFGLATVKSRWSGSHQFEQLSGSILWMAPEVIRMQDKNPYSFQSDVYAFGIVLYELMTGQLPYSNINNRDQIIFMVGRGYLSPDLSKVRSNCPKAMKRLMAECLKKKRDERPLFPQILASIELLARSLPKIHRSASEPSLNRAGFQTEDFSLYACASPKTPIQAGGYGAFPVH

[7] = molecular target: T1, Tyrosine-protein kinase Tec (Homo sapiens, UniProt P42680); assay: Inhibition of TEC (unknown origin)
T1 sequence (P42680 whole entry): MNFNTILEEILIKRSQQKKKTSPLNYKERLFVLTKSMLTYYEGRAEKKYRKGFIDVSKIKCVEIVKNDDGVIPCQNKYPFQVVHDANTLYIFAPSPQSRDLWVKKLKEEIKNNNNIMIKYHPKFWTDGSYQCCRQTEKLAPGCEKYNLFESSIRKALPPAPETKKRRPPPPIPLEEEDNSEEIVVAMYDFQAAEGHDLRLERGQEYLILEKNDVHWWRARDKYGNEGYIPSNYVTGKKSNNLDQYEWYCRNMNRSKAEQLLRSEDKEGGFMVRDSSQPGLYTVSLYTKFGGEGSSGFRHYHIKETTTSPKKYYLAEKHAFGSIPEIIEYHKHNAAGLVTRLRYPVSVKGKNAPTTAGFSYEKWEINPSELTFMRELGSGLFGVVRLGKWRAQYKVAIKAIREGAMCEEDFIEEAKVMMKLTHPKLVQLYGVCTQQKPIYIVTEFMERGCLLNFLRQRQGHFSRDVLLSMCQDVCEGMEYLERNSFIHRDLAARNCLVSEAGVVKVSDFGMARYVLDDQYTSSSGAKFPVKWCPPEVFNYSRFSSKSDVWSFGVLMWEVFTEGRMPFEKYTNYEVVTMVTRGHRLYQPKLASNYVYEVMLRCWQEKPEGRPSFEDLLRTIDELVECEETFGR

[8] = molecular target: Macrophage colony-stimulating factor 1 receptor (Homo sapiens, UniProt P07333); assay: Inhibition of Fms (unknown origin)
Sequence of Macrophage colony-stimulating factor 1 receptor (P07333 whole entry): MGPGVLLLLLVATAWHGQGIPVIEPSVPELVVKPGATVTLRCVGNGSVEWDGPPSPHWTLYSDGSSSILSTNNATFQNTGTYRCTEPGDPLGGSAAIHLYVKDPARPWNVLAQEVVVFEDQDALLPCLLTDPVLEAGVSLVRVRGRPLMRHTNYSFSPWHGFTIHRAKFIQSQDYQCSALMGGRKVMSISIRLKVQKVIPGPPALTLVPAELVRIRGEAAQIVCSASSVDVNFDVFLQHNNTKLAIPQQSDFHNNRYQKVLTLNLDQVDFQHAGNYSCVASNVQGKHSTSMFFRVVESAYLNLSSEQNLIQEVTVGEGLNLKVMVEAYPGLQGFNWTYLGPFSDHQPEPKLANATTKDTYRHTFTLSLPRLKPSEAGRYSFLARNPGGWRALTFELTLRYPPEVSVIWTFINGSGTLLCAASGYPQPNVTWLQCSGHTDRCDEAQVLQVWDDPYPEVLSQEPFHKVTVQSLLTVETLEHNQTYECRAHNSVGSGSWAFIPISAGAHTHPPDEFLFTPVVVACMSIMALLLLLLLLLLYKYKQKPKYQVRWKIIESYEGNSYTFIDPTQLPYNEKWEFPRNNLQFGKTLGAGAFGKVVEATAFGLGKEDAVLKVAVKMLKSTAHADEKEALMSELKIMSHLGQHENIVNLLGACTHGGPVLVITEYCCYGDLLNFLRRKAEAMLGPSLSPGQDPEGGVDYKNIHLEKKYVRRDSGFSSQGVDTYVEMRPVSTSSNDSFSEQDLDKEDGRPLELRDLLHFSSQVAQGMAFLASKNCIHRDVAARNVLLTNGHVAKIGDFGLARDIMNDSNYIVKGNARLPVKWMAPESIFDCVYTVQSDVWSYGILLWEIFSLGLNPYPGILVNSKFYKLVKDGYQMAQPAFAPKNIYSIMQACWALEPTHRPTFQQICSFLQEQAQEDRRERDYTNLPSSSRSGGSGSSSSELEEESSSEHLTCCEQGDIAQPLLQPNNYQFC

[9] = molecular target: T2, Serine/threonine-protein kinase A-Raf (Homo sapiens, UniProt P10398); assay: Inhibition of A-Raf (unknown origin)
T2 sequence (P10398 whole entry): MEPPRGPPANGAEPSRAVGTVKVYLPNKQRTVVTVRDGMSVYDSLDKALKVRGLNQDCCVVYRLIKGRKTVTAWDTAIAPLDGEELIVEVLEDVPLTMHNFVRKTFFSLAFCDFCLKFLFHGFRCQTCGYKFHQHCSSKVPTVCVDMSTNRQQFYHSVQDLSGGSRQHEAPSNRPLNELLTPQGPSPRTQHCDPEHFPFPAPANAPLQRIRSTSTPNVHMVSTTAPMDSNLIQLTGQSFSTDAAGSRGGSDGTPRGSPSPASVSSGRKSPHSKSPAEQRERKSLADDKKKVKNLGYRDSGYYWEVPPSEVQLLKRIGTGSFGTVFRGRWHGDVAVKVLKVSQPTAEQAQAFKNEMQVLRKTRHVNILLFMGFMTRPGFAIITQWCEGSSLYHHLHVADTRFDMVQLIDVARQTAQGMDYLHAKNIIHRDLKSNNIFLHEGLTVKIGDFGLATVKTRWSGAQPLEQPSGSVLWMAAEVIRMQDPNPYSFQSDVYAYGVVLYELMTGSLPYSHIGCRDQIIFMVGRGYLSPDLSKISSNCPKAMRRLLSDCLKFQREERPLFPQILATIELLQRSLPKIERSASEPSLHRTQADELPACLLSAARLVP

[10] = molecular target: High affinity nerve growth factor receptor (Homo sapiens, UniProt P04629); assay: Inhibition of TrkA (unknown origin)

Sequence of Mast/stem cell growth factor receptor Kit (P10721 whole entry): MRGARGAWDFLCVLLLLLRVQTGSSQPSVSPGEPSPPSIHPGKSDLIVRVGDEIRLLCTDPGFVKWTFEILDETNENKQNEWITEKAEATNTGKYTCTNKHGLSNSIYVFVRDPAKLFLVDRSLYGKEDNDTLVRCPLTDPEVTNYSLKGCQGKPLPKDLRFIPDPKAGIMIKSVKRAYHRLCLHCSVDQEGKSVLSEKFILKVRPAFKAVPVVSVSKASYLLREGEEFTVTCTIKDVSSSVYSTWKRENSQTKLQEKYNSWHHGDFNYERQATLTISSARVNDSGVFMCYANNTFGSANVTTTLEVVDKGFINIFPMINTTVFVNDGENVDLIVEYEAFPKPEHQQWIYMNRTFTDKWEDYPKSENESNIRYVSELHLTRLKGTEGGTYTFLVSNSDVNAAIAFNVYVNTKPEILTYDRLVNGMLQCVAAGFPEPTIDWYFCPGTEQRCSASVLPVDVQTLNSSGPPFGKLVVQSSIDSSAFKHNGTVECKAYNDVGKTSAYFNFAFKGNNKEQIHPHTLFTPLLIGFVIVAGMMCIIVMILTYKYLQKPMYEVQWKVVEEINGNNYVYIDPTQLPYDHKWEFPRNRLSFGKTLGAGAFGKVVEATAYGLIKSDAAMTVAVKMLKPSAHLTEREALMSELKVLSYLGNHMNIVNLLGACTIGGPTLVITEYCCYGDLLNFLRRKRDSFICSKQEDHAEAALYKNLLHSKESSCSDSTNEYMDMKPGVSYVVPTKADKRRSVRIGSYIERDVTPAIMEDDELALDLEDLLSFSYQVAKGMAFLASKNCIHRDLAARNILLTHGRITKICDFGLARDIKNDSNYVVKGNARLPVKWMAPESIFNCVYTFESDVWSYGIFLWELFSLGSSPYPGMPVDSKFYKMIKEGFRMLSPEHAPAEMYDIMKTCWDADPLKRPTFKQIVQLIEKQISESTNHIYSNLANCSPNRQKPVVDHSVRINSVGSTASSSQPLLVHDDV
Sequence of Vascular endothelial growth factor receptor 2 (P35968 whole entry): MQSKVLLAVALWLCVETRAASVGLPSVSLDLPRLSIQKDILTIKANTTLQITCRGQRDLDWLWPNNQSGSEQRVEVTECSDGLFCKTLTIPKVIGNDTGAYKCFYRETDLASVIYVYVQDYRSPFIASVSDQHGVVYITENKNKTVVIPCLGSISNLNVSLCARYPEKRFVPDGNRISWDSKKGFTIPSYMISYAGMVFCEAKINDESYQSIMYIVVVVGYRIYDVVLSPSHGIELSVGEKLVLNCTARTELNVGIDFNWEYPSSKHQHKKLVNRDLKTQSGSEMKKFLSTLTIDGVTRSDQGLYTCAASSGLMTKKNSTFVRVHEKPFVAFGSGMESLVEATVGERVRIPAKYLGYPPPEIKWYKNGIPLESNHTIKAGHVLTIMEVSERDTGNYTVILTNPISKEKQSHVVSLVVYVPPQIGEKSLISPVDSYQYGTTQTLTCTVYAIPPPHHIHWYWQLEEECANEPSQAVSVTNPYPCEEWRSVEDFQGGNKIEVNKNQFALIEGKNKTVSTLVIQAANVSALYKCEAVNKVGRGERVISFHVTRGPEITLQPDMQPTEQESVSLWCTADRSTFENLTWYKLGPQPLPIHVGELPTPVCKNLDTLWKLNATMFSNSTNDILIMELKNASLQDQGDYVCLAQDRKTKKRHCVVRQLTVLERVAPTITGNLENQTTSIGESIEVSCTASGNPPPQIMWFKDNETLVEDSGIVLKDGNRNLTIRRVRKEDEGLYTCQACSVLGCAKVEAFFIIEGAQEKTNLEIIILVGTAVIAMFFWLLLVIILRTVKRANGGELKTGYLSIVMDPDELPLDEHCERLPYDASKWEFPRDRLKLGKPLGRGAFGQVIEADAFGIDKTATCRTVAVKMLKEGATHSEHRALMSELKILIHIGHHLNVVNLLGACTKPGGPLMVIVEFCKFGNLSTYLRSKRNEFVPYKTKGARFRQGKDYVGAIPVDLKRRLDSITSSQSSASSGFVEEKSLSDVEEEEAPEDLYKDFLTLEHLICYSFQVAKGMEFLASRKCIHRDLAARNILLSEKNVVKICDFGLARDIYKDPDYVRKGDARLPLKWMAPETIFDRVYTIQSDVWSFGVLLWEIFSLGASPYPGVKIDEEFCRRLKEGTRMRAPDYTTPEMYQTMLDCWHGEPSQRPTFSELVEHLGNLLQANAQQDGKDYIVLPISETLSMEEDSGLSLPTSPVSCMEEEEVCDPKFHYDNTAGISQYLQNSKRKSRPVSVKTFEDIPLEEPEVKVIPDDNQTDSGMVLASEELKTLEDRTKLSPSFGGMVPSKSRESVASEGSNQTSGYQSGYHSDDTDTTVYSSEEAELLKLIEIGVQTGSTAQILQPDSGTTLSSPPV

Compound | IC50 [2] | IC50 [3] | IC50 [4] | also measured
O=C(c1cccc(NS(=O)(=O)C2CCC2)c1F)c1c[nH]c2ncncc12 | ≤ 10 µM | ≤ 10 µM |  | IC50 [1]: ≤ 10 µM
CCCC(C)S(=O)(=O)Nc1cccc(C(=O)c2c[nH]c3ncncc23)c1F (configuration not stated) | ≤ 10 µM |  |  | IC50 [1]: ≤ 10 µM
O=C(c1cccc(NS(=O)(=O)C2CCCCC2)c1F)c1c[nH]c2ncncc12 |  | ≤ 10 µM | ≤ 10 µM | IC50 [1]: ≤ 10 µM
O=C(c1c(F)ccc(NS(=O)(=O)N2CCOCC2)c1F)c1c[nH]c2ncncc12 |  | ≤ 10 µM | ≤ 10 µM | IC50 [1]: ≤ 10 µM; IC50 [8]: ≤ 10 µM
COc1ncnc2[nH]cc(C(=O)c3cccc(NS(=O)(=O)c4ccc(C(F)(F)F)cc4)c3F)c12 | ≤ 10 µM |  | ≤ 10 µM | IC50 [6]: ≤ 10 µM
CCC(C)S(=O)(=O)Nc1cccc(C(=O)c2c[nH]c3ncncc23)c1F (configuration not stated) | ≤ 10 µM | ≤ 10 µM |  | IC50 [1]: ≤ 10 µM
O=C(c1c(F)ccc(NS(=O)(=O)C2CCC2)c1F)c1c[nH]c2ncncc12 | ≤ 10 µM | ≤ 10 µM | ≤ 10 µM | 
O=C(c1cccc(NS(=O)(=O)C2CCCC2)c1F)c1c[nH]c2ncncc12 | ≤ 10 µM | ≤ 10 µM | ≤ 10 µM | 
O=C(c1cccc(NS(=O)(=O)c2ccc(C(F)(F)F)cc2)c1F)c1c[nH]c2ncncc12 |  |  | ≤ 10 µM | IC50 [9]: ≤ 10 µM; IC50 [6]: ≤ 10 µM
CN(C)S(=O)(=O)Nc1cccc(C(=O)c2c[nH]c3ncncc23)c1F |  | ≤ 10 µM |  | IC50 [1]: ≤ 10 µM
CCCS(=O)(=O)Nc1ccc(F)c(C(=O)c2c[nH]c3ncnc(C)c23)c1F | ≤ 10 µM | ≤ 10 µM | ≤ 10 µM | IC50 [1]: ≤ 10 µM; IC50 [8]: ≤ 10 µM; IC50 [5]: ≤ 10 µM
O=S(=O)(Nc1ccc(F)c(C(O)c2c[nH]c3ncnc(C4CC4)c23)c1F)c1ccc(C(F)(F)F)cc1 (configuration not stated) |  |  |  | IC50 [8]: ≤ 10 µM
CCCS(=O)(=O)Nc1cccc(C(=O)c2c[nH]c3ncncc23)c1F |  | ≤ 10 µM | ≤ 10 µM | IC50 [9]: ≤ 10 µM
CC(C)CS(=O)(=O)Nc1cccc(C(=O)c2c[nH]c3ncncc23)c1F |  | ≤ 10 µM | ≤ 10 µM | 
O=C(c1cccc(NS(=O)(=O)N2CCOCC2)c1F)c1c[nH]c2ncncc12 |  | ≤ 10 µM | ≤ 10 µM | IC50 [1]: ≤ 10 µM; IC50 [10]: ≤ 10 µM
COc1ncnc2[nH]cc(C(=O)c3c(F)ccc(NS(=O)(=O)c4ccc(C(F)(F)F)cc4)c3F)c12 |  |  | ≤ 10 µM | IC50 [5]: ≤ 10 µM; IC50 [6]: ≤ 10 µM
O=C(c1c(F)ccc(NS(=O)(=O)CCC(F)(F)F)c1F)c1c[nH]c2ncncc12 |  | ≤ 10 µM | ≤ 10 µM | IC50 [1]: ≤ 10 µM
CCCS(=O)(=O)Nc1cccc(C(=O)c2c[nH]c3ncnc(OC)c23)c1F | ≤ 10 µM |  | ≤ 10 µM | IC50 [1]: ≤ 10 µM; IC50 [5]: ≤ 10 µM; IC50 [6]: ≤ 10 µM
O=C(c1c(F)ccc(NS(=O)(=O)C2CCCCC2)c1F)c1c[nH]c2ncncc12 | ≤ 10 µM | ≤ 10 µM | ≤ 10 µM | IC50 [1]: ≤ 10 µM; IC50 [8]: ≤ 10 µM
O=C(c1cccc(NS(=O)(=O)N2CCCC2)c1F)c1c[nH]c2ncncc12 |  | ≤ 10 µM | ≤ 10 µM | 
O=C(c1cccc(NS(=O)(=O)CC(F)(F)F)c1F)c1c[nH]c2ncncc12 |  | ≤ 10 µM | ≤ 10 µM | IC50 [10]: ≤ 10 µM

Second part, led by results:

IC50 [2] | IC50 [3] | IC50 [4] | Compound | also measured
≤ 10 µM | ≤ 10 µM | ≤ 10 µM | CN(C)S(=O)(=O)Nc1ccc(F)c(C(=O)c2c[nH]c3ncncc23)c1F | 
≤ 10 µM |  | ≤ 10 µM | O=C(c1cccc(NS(=O)(=O)c2cc(F)ccc2F)c1F)c1c[nH]c2ncncc12 | IC50 [1]: ≤ 10 µM; IC50 [5]: ≤ 10 µM; IC50 [6]: ≤ 10 µM
 | ≤ 10 µM | ≤ 10 µM | CC(C)CS(=O)(=O)Nc1ccc(F)c(C(=O)c2c[nH]c3ncncc23)c1F | IC50 [1]: ≤ 10 µM
≤ 10 µM | ≤ 10 µM | ≤ 10 µM | O=C(c1c(F)ccc(NS(=O)(=O)c2ccc(C(F)(F)F)cc2)c1F)c1c[nH]c2ncncc12 | IC50 [7]: ≤ 10 µM; IC50 [5]: ≤ 10 µM
 | ≤ 10 µM | ≤ 10 µM | CCS(=O)(=O)Nc1ccc(F)c(C(=O)c2c[nH]c3ncncc23)c1F | 
≤ 10 µM |  | ≤ 10 µM | O=C(c1c(F)ccc(NS(=O)(=O)c2cc(F)ccc2F)c1F)c1c[nH]c2ncncc12 | IC50 [1]: ≤ 10 µM; IC50 [6]: ≤ 10 µM
 |  | ≤ 10 µM | O=C(c1c(F)ccc(NS(=O)(=O)c2cccc(F)c2)c1F)c1c[nH]c2ncncc12 | IC50 [6]: ≤ 10 µM
≤ 10 µM | ≤ 10 µM | ≤ 10 µM | CC(C)(C)c1ccc(S(=O)(=O)Nc2ccc(F)c(C(=O)c3c[nH]c4ncncc34)c2F)cc1 | 
≤ 10 µM |  | ≤ 10 µM | O=C(c1c(F)ccc(NS(=O)(=O)c2ccccc2F)c1F)c1c[nH]c2ncncc12 | IC50 [6]: ≤ 10 µM
≤ 10 µM | ≤ 10 µM | ≤ 10 µM | CC(C)c1ccc(S(=O)(=O)Nc2ccc(F)c(C(=O)c3c[nH]c4ncncc34)c2F)cc1 | IC50 [9]: ≤ 10 µM
 | ≤ 10 µM | ≤ 10 µM | O=C(c1c(F)ccc(NS(=O)(=O)c2cccc(OC(F)F)c2)c1F)c1c[nH]c2ncncc12 | IC50 [9]: ≤ 10 µM
≤ 10 µM | ≤ 10 µM | ≤ 10 µM | O=C(c1cccc(NS(=O)(=O)c2ccc(F)cc2F)c1F)c1c[nH]c2ncncc12 | 
 | ≤ 10 µM | ≤ 10 µM | O=C(c1c(F)ccc(NS(=O)(=O)CC(F)(F)F)c1F)c1c[nH]c2ncncc12 | 
 | ≤ 10 µM | ≤ 10 µM | O=C(c1c(F)ccc(NS(=O)(=O)c2ccccn2)c1F)c1c[nH]c2ncncc12 | 
 |  | ≤ 10 µM | CCCc1ccc(S(=O)(=O)Nc2ccc(F)c(C(=O)c3c[nH]c4ncncc34)c2F)cc1 | IC50 [9]: ≤ 10 µM; IC50 [6]: ≤ 10 µM
 |  | ≤ 10 µM | O=C(c1cccc(NS(=O)(=O)c2cccc(F)c2)c1F)c1c[nH]c2ncncc12 | IC50 [6]: ≤ 10 µM
≤ 10 µM | ≤ 10 µM |  | CC(C)S(=O)(=O)Nc1ccc(F)c(C(=O)c2c[nH]c3ncncc23)c1F | 
 | ≤ 10 µM | ≤ 10 µM | O=C(c1c(F)ccc(NS(=O)(=O)c2ccc(OC(F)F)cc2)c1F)c1c[nH]c2ncncc12 | IC50 [9]: ≤ 10 µM
 | ≤ 10 µM |  | O=C(c1cccc(NS(=O)(=O)c2ccc(F)cc2)c1F)c1c[nH]c2ncncc12 | 
≤ 10 µM |  | ≤ 10 µM | O=C(c1cccc(NS(=O)(=O)c2ccccc2F)c1F)c1c[nH]c2ncncc12 | IC50 [5]: ≤ 10 µM; IC50 [6]: ≤ 10 µM
 | ≤ 10 µM | ≤ 10 µM | O=C(c1c(F)ccc(NS(=O)(=O)c2ccc(F)cc2)c1F)c1c[nH]c2ncncc12 | 
 |  | ≤ 10 µM | CCCS(=O)(=O)Nc1ccc(F)c(C(=O)c2c[nH]c3ncncc23)c1F | IC50 [7]: ≤ 10 µM; IC50 [9]: ≤ 10 µM; IC50 [6]: ≤ 10 µM
≤ 10 µM | ≤ 10 µM | ≤ 10 µM | O=C(c1c(F)ccc(NS(=O)(=O)c2ccc(F)cc2F)c1F)c1c[nH]c2ncncc12 | IC50 [8]: ≤ 10 µM
 | ≤ 10 µM | ≤ 10 µM | O=C(c1cccc(NS(=O)(=O)c2cccnc2)c1F)c1c[nH]c2ncncc12 | 
≤ 10 µM | ≤ 10 µM | ≤ 10 µM | O=C(c1c(F)ccc(NS(=O)(=O)c2c(F)cccc2F)c1F)c1c[nH]c2ncncc12 | 
 | ≤ 10 µM | ≤ 10 µM | CCC(C)S(=O)(=O)Nc1ccc(F)c(C(=O)c2c[nH]c3ncncc23)c1F (configuration not stated) | 
